{"source": "paper PMC8501045", "about": "“Addressing MRSA infection and antibacterial resistance with peptoid polymers” (Nature Communications, 2021)", "key": {"S. haemolyticus 0202": {"test_system": "S. haemolyticus 0202", "test": "Mouse peritonitis model, CFU in organs, blood and IP fluid, S. haemolyticus", "format": "in vivo", "details": "Figure 6f", "procedure": "This infection model was conducted according to the previously reported method with slight modification. Female ICR mice (21–24 g) were used for MRSA-infected peritonitis model. Mice were infected by intraperitoneal administration of 0.2 mL of S. aureus USA300 LAC in saline (7.5 × 10^8 CFU/mL) supplemented with 5% mucin. […] Once the infected mice died, peritoneal lavage was performed by injecting 3.0 mL of saline into the peritoneal cavity and massaging the abdomen. Subsequently, the abdomen was opened and peritoneal fluid was recovered from the abdominal cavity for analysis. Blood samples were collected through cardiac puncture for analysis of CFU/mL. Then, different organs including the heart, liver, spleen, lung, and kidney were removed and homogenized in 0.1% TX-100 solution. The homogenate was serially diluted for plating on LB agar. After incubation at 37 °C for 14 h, the number of colonies on the plate was counted to calculate the bacteria burden. Surviving mice were euthanized at 48 h after infection. The blood, peritoneal fluid, and organs were collected for the determination of bacterial colonies. […] For the pretreatment group, mice were sacrificed and tissues were harvested to determine the CFU at 1 h post infection.\nFor experiments of S. epidermidis and S. haemolyticus infections, female ICR mice (22–24 g) were rendered neutropenic by treatment with 150 and 100 mg/kg of cyclophosphamide intraperitoneally at 4 days and 1 day prior to infection. Mice were infected by intraperitoneal administration of 0.2 mL of S. epidermidis 9397 (5.1 × 10^9 CFU/mL) or S. haemolyticus 0202 (2.6 × 10^9 CFU/mL) in saline. Other experiment conditions were similar to those in MRSA peritonitis model."}, "[1]": {"test_system": "S. aureus USA300 LAC biofilm", "test": "Mouse keratitis model, MRSA biofilm on contact lens", "format": "in vivo", "details": "1.56 mg/mL topical", "quoted_text": "The contact lenses were cut into discs with a diameter of 3.5 mm and placed in a 96-well plate. The discs were soaked with 150 μL of MH medium overnight. Then the discs were transferred to a new 96-well plate and 150 μL of S. aureus USA300 LAC suspension (10^5 CFU/mL in MH medium) was added into corresponding wells. The plate was incubated at 37 °C with shaking at 100 rpm. After 2 h incubation, the suspension was aspirated and the lenses were washed with PBS to remove any nonadherent cells, followed by the addition of 150 μL of fresh MH medium. The plate containing the contact lenses with adhered cells was incubated at 37 °C with shaking at 100 rpm for 18 h to allow biofilm formation.\nMale balb/c mice (22–24 g) were intraperitoneally injected with cyclophosphamide (150 mg/kg at 4 days and 100 mg/kg at 1 day before inducing keratitis) for immunosuppression. […] In addition, 0.5% tetracaine hydrochloride eye drops were used as topical anesthesia and then a 2 mm-diameter filter paper disc containing 2 μL of 99% 1-heptanol was placed on the center of the cornea for 15 min. […] All mice were killed and the eyeballs of each mouse were collected immediately 30 min after the last treatment, followed by the quantitative analysis of bacterial burden."}, "L. monocytogenes 1001": {"test_system": "L. monocytogenes 1001", "test": "MIC assay, clinical isolate", "format": "cell-based, Listeria monocytogene", "details": "Listeria monocytogenes, 1001", "procedure": "MRSA (S. aureus Mu50, S. aureus Newman, S. aureus USA400, S. aureus USA300 LAC, S. aureus USA300) were obtained from Shanghai Institute of Materia Medica, Chinese Academy of Sciences. All clinically isolated Gram-positive bacteria used in this study were isolated from patients with various infections, different ages and sexes in the Shanghai Ruijin Rehabilitation Hospital. All strains were cultured in Luria-Bertani (LB) medium at 37 °C before use.\nBacteria were cultured in LB medium at 37 °C for 10 h, and then the bacterial suspension was diluted in Mueller–Hinton (MH) medium to a cell density of 2 × 10^5 colony forming units (CFU)/mL as the working suspension. The poly(Naeg)20 was serially diluted by MH medium in a 96-well plate, and an equal volume of bacterial suspension was added into each well. The final concentration of the poly(Naeg)20 was ranging from 200 to 1.56 μg/mL, and the plates were incubated at 37 °C for 9 h. Wells with inoculum and no polymer were used as the positive control; wells with only MH medium were used as the blank. The optical density (OD) in each well was measured on a Molecular Devices SpectraMax M2 precision microplate reader. The percentage of bacteria growth was calculated from1 %cellgrowth=A600polymer-A600blank/A600control-A600blank×100\nThe test was independently repeated at least three times."}}}
{"smiles": "CN[C@H](CC(C)C)C(=O)N[C@H]1C(=O)N[C@@H](CC(N)=O)C(=O)N[C@H]2C(=O)N[C@H]3C(=O)N[C@H](C(=O)N[C@H](C(=O)O)c4cc(O)cc(O)c4-c4cc3ccc4O)[C@H](O)c3ccc(c(Cl)c3)Oc3cc2cc(c3O[C@@H]2O[C@H](CO)[C@@H](O)[C@H](O)[C@H]2O[C@H]2C[C@](C)(N)[C@H](O)[C@H](C)O2)Oc2ccc(cc2Cl)[C@H]1O", "note": "[Vancomycin]", "values": [{"measurement": "Log10(CFU/mL IP fluid)", "setting": "S. haemolyticus 0202; individual mouse 2 of 6", "value": "4.392 Log10(CFU/mL)"}, {"measurement": "Log10(CFU/mL IP fluid)", "setting": "S. haemolyticus 0202; individual mouse 3 of 6", "value": "3.853 Log10(CFU/mL)"}, {"measurement": "Log10(CFU/mL IP fluid)", "setting": "S. haemolyticus 0202; individual mouse 4 of 6", "value": "4.647 Log10(CFU/mL)"}, {"measurement": "Log10(CFU/mL IP fluid)", "setting": "S. haemolyticus 0202; individual mouse 5 of 6", "value": "4.595 Log10(CFU/mL)"}, {"measurement": "Log10(CFU/mL IP fluid)", "setting": "S. haemolyticus 0202; individual mouse 6 of 6", "value": "4.235 Log10(CFU/mL)"}, {"measurement": "Log10(CFU/mL Blood)", "setting": "S. haemolyticus 0202; individual mouse 1 of 6", "value": "3.398 Log10(CFU/mL)"}, {"measurement": "Log10(CFU/mL Blood)", "setting": "S. haemolyticus 0202; individual mouse 2 of 6", "value": "3.213 Log10(CFU/mL)"}, {"measurement": "Log10(CFU/mL Blood)", "setting": "S. haemolyticus 0202; individual mouse 3 of 6", "value": "2.602 Log10(CFU/mL)"}, {"measurement": "Log10(CFU/mL Blood)", "setting": "S. haemolyticus 0202; individual mouse 4 of 6", "value": "3.336 Log10(CFU/mL)"}, {"measurement": "Log10(CFU/mL Blood)", "setting": "S. haemolyticus 0202; individual mouse 5 of 6", "value": "2.62 Log10(CFU/mL)"}, {"measurement": "Log10(CFU/mL Blood)", "setting": "S. haemolyticus 0202; individual mouse 6 of 6", "value": "0 Log10(CFU/mL)"}, {"measurement": "Log10(CFU/g Heart)", "setting": "S. haemolyticus 0202; individual mouse 1 of 6", "value": "4.437 Log10(CFU/g)"}, {"measurement": "Log10(CFU/g Heart)", "setting": "S. haemolyticus 0202; individual mouse 2 of 6", "value": "5.504 Log10(CFU/g)"}, {"measurement": "Log10(CFU/g Heart)", "setting": "S. haemolyticus 0202; individual mouse 3 of 6", "value": "4.593 Log10(CFU/g)"}, {"measurement": "Log10(CFU/g Heart)", "setting": "S. haemolyticus 0202; individual mouse 4 of 6", "value": "5.198 Log10(CFU/g)"}, {"measurement": "Log10(CFU/g Heart)", "setting": "S. haemolyticus 0202; individual mouse 5 of 6", "value": "4.862 Log10(CFU/g)"}, {"measurement": "Log10(CFU/g Heart)", "setting": "S. haemolyticus 0202; individual mouse 6 of 6", "value": "5.445 Log10(CFU/g)"}, {"measurement": "Log10(CFU/g Kidney)", "setting": "S. haemolyticus 0202; individual mouse 1 of 6", "value": "4.477 Log10(CFU/g)"}, {"measurement": "Log10(CFU/g Kidney)", "setting": "S. haemolyticus 0202; individual mouse 2 of 6", "value": "5.326 Log10(CFU/g)"}, {"measurement": "Log10(CFU/g Kidney)", "setting": "S. haemolyticus 0202; individual mouse 3 of 6", "value": "5 Log10(CFU/g)"}, {"measurement": "Log10(CFU/g Kidney)", "setting": "S. haemolyticus 0202; individual mouse 4 of 6", "value": "5.151 Log10(CFU/g)"}, {"measurement": "Log10(CFU/g Kidney)", "setting": "S. haemolyticus 0202; individual mouse 5 of 6", "value": "5.103 Log10(CFU/g)"}, {"measurement": "Log10(CFU/g Kidney)", "setting": "S. haemolyticus 0202; individual mouse 6 of 6", "value": "6.713 Log10(CFU/g)"}, {"measurement": "Log10(CFU/g Liver)", "setting": "S. haemolyticus 0202; individual mouse 1 of 6", "value": "4.477 Log10(CFU/g)"}, {"measurement": "Log10(CFU/g Liver)", "setting": "S. haemolyticus 0202; individual mouse 2 of 6", "value": "5.908 Log10(CFU/g)"}, {"measurement": "Log10(CFU/g Liver)", "setting": "S. haemolyticus 0202; individual mouse 3 of 6", "value": "4.978 Log10(CFU/g)"}, {"measurement": "Log10(CFU/g Liver)", "setting": "S. haemolyticus 0202; individual mouse 4 of 6", "value": "5.097 Log10(CFU/g)"}, {"measurement": "Log10(CFU/g Liver)", "setting": "S. haemolyticus 0202; individual mouse 5 of 6", "value": "5.108 Log10(CFU/g)"}, {"measurement": "Log10(CFU/g Liver)", "setting": "S. haemolyticus 0202; individual mouse 6 of 6", "value": "5.286 Log10(CFU/g)"}, {"measurement": "Log10(CFU/g Lung)", "setting": "S. haemolyticus 0202; individual mouse 1 of 6", "value": "5.45 Log10(CFU/g)"}, {"measurement": "Log10(CFU/g Lung)", "setting": "S. haemolyticus 0202; individual mouse 2 of 6", "value": "5.572 Log10(CFU/g)"}, {"measurement": "Log10(CFU/g Lung)", "setting": "S. haemolyticus 0202; individual mouse 3 of 6", "value": "6.099 Log10(CFU/g)"}, {"measurement": "Log10(CFU/g Lung)", "setting": "S. haemolyticus 0202; individual mouse 4 of 6", "value": "5.247 Log10(CFU/g)"}, {"measurement": "Log10(CFU/g Lung)", "setting": "S. haemolyticus 0202; individual mouse 5 of 6", "value": "5.56 Log10(CFU/g)"}, {"measurement": "Log10(CFU/g Lung)", "setting": "S. haemolyticus 0202; individual mouse 6 of 6", "value": "6.002 Log10(CFU/g)"}, {"measurement": "Log10(CFU/g Spleen)", "setting": "S. haemolyticus 0202; individual mouse 1 of 6", "value": "6.652 Log10(CFU/g)"}, {"measurement": "Log10(CFU/g Spleen)", "setting": "S. haemolyticus 0202; individual mouse 2 of 6", "value": "7.228 Log10(CFU/g)"}, {"measurement": "Log10(CFU/g Spleen)", "setting": "S. haemolyticus 0202; individual mouse 3 of 6", "value": "6.728 Log10(CFU/g)"}, {"measurement": "Log10(CFU/g Spleen)", "setting": "S. haemolyticus 0202; individual mouse 4 of 6", "value": "6.799 Log10(CFU/g)"}, {"measurement": "Log10(CFU/g Spleen)", "setting": "S. haemolyticus 0202; individual mouse 5 of 6", "value": "6.226 Log10(CFU/g)"}, {"measurement": "Log10(CFU/g Spleen)", "setting": "S. haemolyticus 0202; individual mouse 6 of 6", "value": "6.995 Log10(CFU/g)"}, {"measurement": "reduction of the bacterial load of each eye of the mouse", "setting": "[1]", "value": "ineffective"}, {"measurement": "MIC", "setting": "L. monocytogenes 1001", "value": 0.39, "unit": "µg/mL"}]}
